Measured values from patent US20080261994A1, “CYCLOPROPANE COMPOUNDS AND PHARMACEUTICAL USE THEREOF” (Japan Tobacco Inc., priority 2003, published 2008).
Where two headings read alike, the source gives them in different places.

Columns and labels:
Format in all cases: biochemical
aggrecanase-1 = target: T1, aggrecanase-1 (Homo sapiens, UniProt O75173); assay: Aggrecanase-1 inhibitory action (Particle Assay, GAG release from aggrecan-containing polyacrylamide particles)
T1 sequence (O75173 213-837): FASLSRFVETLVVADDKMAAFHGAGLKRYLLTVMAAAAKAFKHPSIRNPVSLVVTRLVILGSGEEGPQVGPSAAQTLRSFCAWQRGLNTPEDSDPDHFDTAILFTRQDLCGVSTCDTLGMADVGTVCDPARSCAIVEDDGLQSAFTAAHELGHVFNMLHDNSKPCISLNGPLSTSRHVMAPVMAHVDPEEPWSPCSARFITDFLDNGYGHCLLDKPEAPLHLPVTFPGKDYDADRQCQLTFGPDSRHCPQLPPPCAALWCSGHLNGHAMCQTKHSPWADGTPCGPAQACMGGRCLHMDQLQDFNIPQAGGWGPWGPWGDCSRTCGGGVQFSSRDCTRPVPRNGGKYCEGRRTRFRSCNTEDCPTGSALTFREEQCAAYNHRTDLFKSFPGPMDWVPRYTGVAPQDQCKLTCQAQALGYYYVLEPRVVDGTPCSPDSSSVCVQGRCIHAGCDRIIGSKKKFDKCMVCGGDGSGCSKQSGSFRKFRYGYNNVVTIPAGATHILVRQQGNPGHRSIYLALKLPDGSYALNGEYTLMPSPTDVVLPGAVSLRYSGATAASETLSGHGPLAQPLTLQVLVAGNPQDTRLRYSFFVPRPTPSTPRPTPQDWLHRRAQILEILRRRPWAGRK
Summary of the method: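 Readout was dimethylmethylene blue absorbance (595 nm) of glycosaminoglycan liberated into supernatant, calibrated with whale chondroitin sulfate. Substrate was aggrecan in polyacrylamide particles, digested 15 h at 37° C in Tris-HCl; TC50 (μM) derived from inhibition relative to no-enzyme and no-inhibitor controls.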

MMP-1 = target: T2, MMP-1 (Homo sapiens, UniProt P03956); assay: MMP-1 inhibitory action (Type I collagen Activity Measurement kit, FITC-labeled collagen type I)
T2 sequence (P03956 100-469): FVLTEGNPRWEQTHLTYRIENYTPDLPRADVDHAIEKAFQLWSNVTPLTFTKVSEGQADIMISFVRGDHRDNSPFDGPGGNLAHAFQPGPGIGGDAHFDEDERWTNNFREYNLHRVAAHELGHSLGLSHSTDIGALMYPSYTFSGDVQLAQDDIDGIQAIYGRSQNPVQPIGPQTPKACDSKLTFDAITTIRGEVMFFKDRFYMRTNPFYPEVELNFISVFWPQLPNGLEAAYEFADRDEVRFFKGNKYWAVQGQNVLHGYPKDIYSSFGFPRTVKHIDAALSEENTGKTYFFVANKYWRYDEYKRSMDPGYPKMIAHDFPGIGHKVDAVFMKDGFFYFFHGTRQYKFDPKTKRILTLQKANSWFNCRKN

Recombinant Human MMP-13 = target: T3, Recombinant Human MMP-13 (Homo sapiens, UniProt P45452); assay: MMP-13 inhibitory activity (MMP-13 specific fluorescent substrate with quencher)
T3 construct: purchased R&D systems 511-MM
Summary of the method: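 IC50 (μM) derived from % inhibition, normalised to wells without enzyme and without inhibitor, fluorescence read at 325/405 nm. Enzyme and compound preceded addition of the quenched 7-MCA…DPA substrate; Tris-HCl buffer, 25 °C for 1 h, acetic-acid stop.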

[1] = Experimental Example 1, read-out: IC50 AG1
[2] = Experimental Example 2, read-out: IC50 MMP1
[3] = Experimental Example 3, read-out: IC50 MMP13
[4] = aggrecanase-1 inhibitory action, read-out: IC50 AG1 (Experimental Example 1)
[5] = MMP-1 inhibitory action, FITC-labeled collagen type I, 37° C. for 3 hr, read-out: IC50 MMP1 (Experimental Example 2)
[6] = Recombinant Human MMP-13, fluorescent substrate, 25° C. for 1 h, read-out: IC50 MMP13 (Experimental Example 3)

Structure (SMILES) | IC50 (aggrecanase-1; [1]) | IC50 (MMP-1; [2]) | IC50 (Recombinant Human MMP-13; [3]) | IC50 (aggrecanase-1; [4]) | IC50 (MMP-1; [5]) | IC50 (Recombinant Human MMP-13; [6])
CC1[C@H](c2ccccc2)[C@]1(NS(=O)(=O)c1ccc(-c2ccc3nsnc3c2)s1)C(=O)O (stereo partly drawn) [Example 2-497] | < 100 nM | ≥ 1000 nM | < 100 nM | – | – | –
CNC(=O)[C@]1(NS(=O)(=O)c2ccc(-c3cc(C(F)(F)F)on3)s2)C(C)[C@@H]1c1ccccc1 (stereo partly drawn) [Example 2-297] | ≥ 1000 nM | ≥ 10000 nM | ≥ 1000 nM | – | – | –
CC(=O)OCCc1cccc(C2CC2(NS(=O)(=O)c2ccc(-c3ccc(Cl)cc3)s2)C(=O)O)c1 (stereo not drawn) [Example 2-108] | – | – | – | < 100 nM | ≥ 1000 nM | < 100 nM
CCCC(=O)c1ccc(S(=O)(=O)NC2(C(=O)O)CC2c2ccccc2)s1 (stereo not drawn) [Example 2-117] | – | – | – | ≥ 10000 nM | ≥ 10000 nM | ≥ 10000 nM
O=C(O)C1(NS(=O)(=O)c2ccc(-c3ccc(Cl)cc3)s2)CC1c1ccccc1Oc1cccnc1 (stereo not drawn) [Example 2-24] | – | – | – | < 1000 nM | ≥ 10000 nM | < 1000 nM
O=C(O)COc1ccccc1C1CC1(NS(=O)(=O)c1ccc(-c2ccc(Cl)cc2)s1)C(=O)O (stereo not drawn) [Example 1-139] | – | – | – | < 100 nM | ≥ 10000 nM | < 1000 nM
CN1CCN(C(=O)Cc2ccc([C@@H]3C[C@]3(NS(=O)(=O)c3ccc(-c4cc(C(F)(F)F)on4)s3)C(=O)O)cc2)CC1 [Example 2-294] | < 100 nM | ≥ 1000 nM | < 100 nM | – | – | –
CC1(C)C(c2ccccc2)C1(NS(=O)(=O)c1ccc(-c2cc(C(F)(F)F)on2)s1)C(=O)O (stereo not drawn) [Example 2-275] | < 100 nM | ≥ 1000 nM | < 1000 nM | – | – | –
O=C(NCCCC1(c2ccccc2)CC1(NS(=O)(=O)c1ccc(-c2ccc(Cl)cc2)s1)C(=O)O)OC1CCCC1 (stereo not drawn) [Example 2-298] | < 100 nM | ≥ 1000 nM | < 100 nM | – | – | –
CN(C)CCC(=O)Nc1cccc(C2CC2(NS(=O)(=O)c2ccc(-c3ccc(Cl)cc3)s2)C(=O)O)c1 (stereo not drawn) [Example 2-223] | – | – | – | < 1000 nM | ≥ 10000 nM | < 1000 nM
O=C(O)C1(NS(=O)(=O)c2ccc(-c3ccc(Cl)cc3)s2)CC1c1ccc(Br)cc1 (stereo not drawn) [Example 2-203] | – | – | – | < 1000 nM | ≥ 10000 nM | < 100 nM
O=C(O)C1(NS(=O)(=O)c2ccc(-c3ccc(Cl)cc3)s2)CC1c1ccccc1O (stereo not drawn) [Example 1-102] | – | – | – | < 100 nM | ≥ 1000 nM | < 1000 nM
COC(=O)Cc1cccc(C2CC2(NS(=O)(=O)c2ccc(-c3cc(C(F)(F)F)on3)s2)C(=O)O)c1 (stereo not drawn) [Example 2-219] | – | – | – | < 1000 nM | ≥ 1000 nM | < 100 nM
O=C(O)C1(NS(=O)(=O)c2ccc(-c3ccc(Cl)cc3)s2)CC1c1cccc(NCc2cccnc2)c1 (stereo not drawn) [Example 1-129] | – | – | – | < 100 nM | ≥ 1000 nM | < 100 nM
CN(C)c1cccc(C2CC2(NS(=O)(=O)c2ccc(-c3ccc(Cl)cc3)s2)C(=O)O)c1 (stereo not drawn) [Example 1-133] | – | – | – | < 100 nM | ≥ 1000 nM | < 100 nM
O=C(O)[C@]1(NS(=O)(=O)c2ccc(-n3cc(Cl)cn3)nc2)C[C@@H]1c1ccccc1 [Example 2-554] | ≥ 1000 nM | ≥ 1000 nM | < 1000 nM | – | – | –
CC1[C@H](c2ccccc2)[C@]1(NS(=O)(=O)c1ccc(-c2cc(C(C)(F)F)on2)s1)C(=O)O (stereo partly drawn) [Example 2-609] | < 100 nM | < 100 nM | < 100 nM | – | – | –
CC1[C@H](c2ccccc2)[C@]1(NS(=O)(=O)c1ccc(-c2cn(C)cn2)s1)C(=O)O (stereo partly drawn) [Example 2-450] | < 1000 nM | ≥ 10000 nM | < 1000 nM | – | – | –
O=C(O)C1(CS(=O)(=O)N2CCN(c3ccc(Cl)cc3)CC2)CC1c1ccccc1 (stereo not drawn) [Example 2-186] | – | – | – | ≥ 1000 nM | ≥ 10000 nM | ≥ 1000 nM
COc1ccccc1C1(C)CC1(NS(=O)(=O)c1ccc(-c2cc(C(F)(F)F)on2)s1)C(=O)O (stereo not drawn) [Example 2-613] | < 100 nM | < 1000 nM | ≥ 1000 nM | – | – | –

Structure (SMILES) | IC50 (aggrecanase-1; [1]) | IC50 (MMP-1; [2]) | IC50 (Recombinant Human MMP-13; [3]) | IC50 (aggrecanase-1; [4]) | IC50 (MMP-1; [5]) | IC50 (Recombinant Human MMP-13; [6])
O=C(O)[C@]1(NS(=O)(=O)c2ccc(-c3cc(C(F)(F)C(F)(F)F)on3)s2)C[C@@H]1c1ccccc1 [Example 2-111] | – | – | – | ≥ 1000 nM | ≥ 10000 nM | < 1000 nM
CN1CCN(c2ccc(C3CC3(NS(=O)(=O)c3ccc(-c4ccc(Cl)cc4)s3)C(=O)O)cc2)CC1 (stereo not drawn) [Example 2-247] | – | – | – | ≥ 10000 nM | ≥ 10000 nM | ≥ 10000 nM
CC1[C@H](c2ccccc2)[C@]1(NS(=O)(=O)N1CCN(CCc2ccccc2)CC1)C(=O)O (stereo partly drawn) [Example 2-531] | ≥ 1000 nM | ≥ 1000 nM | ≥ 1000 nM | – | – | –
C[C@]1(c2ccccc2)C[C@@]1(NS(=O)(=O)c1ccc(N2CCC(F)(F)C2)s1)C(=O)O [Example 2-467] | ≥ 1000 nM | ≥ 10000 nM | ≥ 10000 nM | – | – | –
O=C(O)C1(NS(=O)(=O)c2ccc(-c3ccc(Cl)cc3)s2)CC1c1cccc([N+](=O)[O-])c1 (stereo not drawn) [Example 1-127] | – | – | – | < 100 nM | ≥ 1000 nM | < 1000 nM
C[C@]1(c2ccccc2)C[C@@]1(NS(=O)(=O)c1ccc(-c2cc(O)c(F)c(F)c2)s1)C(=O)O [Example 2-601] | < 1000 nM | ≥ 1000 nM | ≥ 1000 nM | – | – | –
O=C(O)C1(NS(=O)(=O)c2ccc(-c3ccc(C(F)(F)F)cc3)s2)CC1c1ccccc1 (stereo not drawn) [Example 2-19] | – | – | – | < 1000 nM | ≥ 10000 nM | < 1000 nM
O=C(O)C1(CS(=O)(=O)N2CCN(c3ccc(C(F)(F)F)cn3)CC2)CC1c1ccccc1 (stereo not drawn) [Example 2-185] | – | – | – | ≥ 1000 nM | ≥ 10000 nM | < 1000 nM
CC1[C@H](c2ccccc2)[C@]1(NS(=O)(=O)c1ccc(-c2cc(C(F)F)on2)cc1)C(=O)O (stereo partly drawn) [Example 2-401] | < 100 nM | < 1000 nM | < 100 nM | – | – | –
CS(=O)(=O)Nc1cccc(C2CC2(NS(=O)(=O)c2ccc(-c3ccc(Cl)cc3)s2)C(=O)O)c1 (stereo not drawn) [Example 1-130] | – | – | – | < 100 nM | ≥ 1000 nM | < 100 nM
CC1[C@H](c2ccccc2)[C@]1(NS(=O)(=O)c1ccc(-c2cc(N(C)C)on2)s1)C(=O)O (stereo partly drawn) [Example 2-419] | < 100 nM | < 1000 nM | < 100 nM | – | – | –
O=C(O)[C@@]1(NS(=O)(=O)c2ccc(-c3ccc(Cl)cc3)s2)C[C@H]1c1cccc(Br)c1 [Example 2-150] | – | – | – | < 1000 nM | ≥ 1000 nM | < 1000 nM
CS(=O)(=O)Nc1cccc(C2CC2(NS(=O)(=O)c2ccc(-c3ccc(Cl)cc3)cc2)C(=O)O)c1 (stereo not drawn) [Example 1-38] | – | – | – | < 100 nM | ≥ 10000 nM | < 100 nM
O=C(O)[C@]1(NS(=O)(=O)c2ccc3c(c2)Cc2cc(F)ccc2-3)C[C@@H]1c1ccccc1 [Example 2-141] | – | – | – | < 1000 nM | ≥ 1000 nM | < 100 nM
CC1[C@H](c2ccccc2)[C@]1(NS(=O)(=O)c1cn2cc(-c3ccccc3)nc2s1)C(=O)O (stereo partly drawn) [Example 2-499] | < 1000 nM | < 1000 nM | < 100 nM | – | – | –
Nc1cccc(C2CC2(NS(=O)(=O)c2ccc(-c3ccc(Cl)cc3)cc2)C(=O)O)c1 (stereo not drawn) [Example 1-18] | – | – | – | < 1000 nM | ≥ 1000 nM | < 100 nM
COc1cnn(-c2ccc(S(=O)(=O)N[C@@]3(C(=O)O)C(C)[C@@H]3c3ccccc3)s2)c1 (stereo partly drawn) [Example 2-492] | < 100 nM | < 100 nM | < 100 nM | – | – | –
C[C@]1(c2ccccc2)C[C@@]1(NS(=O)(=O)c1ccc(-c2ccc(CO)cc2)s1)C(=O)O [Example 2-574] | < 1000 nM | < 1000 nM | < 100 nM | – | – | –
CC1[C@H](c2ccccc2)[C@]1(NS(=O)(=O)c1ccc(-c2ccc3c(c2)OCO3)s1)C(=O)O (stereo partly drawn) [Example 2-470] | < 100 nM | < 1000 nM | < 100 nM | – | – | –
COCCCC1(c2ccccc2)CC1(NS(=O)(=O)c1ccc(-n2cc(Cl)cn2)s1)C(=O)O (stereo not drawn) [Example 2-560] | < 1000 nM | ≥ 1000 nM | < 1000 nM | – | – | –
